Source: patent US20230355626A1, “INHIBITORS OF HUMAN IMMUNODEFICIENCY VIRUS REPLICATION” (VIIV HEALTHCARE UK (NO.5) LIMITED, priority 2020, published 2023)

Experiments:
recombinant NL4-3 virus = assay: HIV cell culture assay (antiviral activity, luciferase readout in infected MT-2 cells); assay type: cell-based; conditions: Human immunodeficiency virus 1, NL43, MT2
Method: HIV cell culture assay—MT-2 cells, 293T cells and the proviral DNA clone of NL4-3 virus were obtained from the NIH AIDS Research and Reference Reagent Program. MT-2 cells were propagated in RPMI 1640 media supplemented with 10% heat inactivated fetal bovine serum (FBS), 100 μg/ml penicillin G and up to 100 units/mL streptomycin. The 293T cells were propagated in DMEM media supplemented with 10% heat inactivated FBS, 100 μg/mL penicillin G and 100 μg/mL streptomycin. A recombinant NL4-3 proviral clone, in which a section of the nef gene was replaced with the Renilla luciferase gene, was used to make the reference virus used in these studies. The recombinant virus was prepared through transfection of the recombinant NL4-3 proviral clone into 293T cells using Transit-293 Transfection Reagent from Mirus Bio LLC (Madison, WI). Supernatant was harvested after 2-3 days and the amount of virus present was titered in MT-2 cells using luciferase enzyme activity as a marker by measuring luciferase enzyme activity. Luciferase was quantitated using the EnduRen Live Cell Substrate from Promega (Madison, WI). Antiviral activities of compounds toward the recombinant virus were quantified by measuring luciferase activity in MT-2 cells infected for 4-5 days with the recombinant virus in the presence of serial dilutions of the compound.
The 50% effective concentration (EC50) was calculated by using the exponential form of the median effect equation where (Fa)=1/[1+(ED50/drug conc.)m] (Johnson VA, Byington RT. Infectivity Assay. In Techniques in HIV Research. ed. Aldovini A, Walker BD. 71-76. New York: Stockton Press.1990). Curve fitting and analysis were performed with ActivityBase XE Runner software version 9.1.0.4 using model 203 (ID Business Solutions, LTD, Guildford, UK).

[1] = Compound cytotoxicity, XTT-based colorimetric assay; assay type: cell-based; conditions: human; uninfected MT2 cells, day 4, XTT assay
Method: Compound cytotoxicity and the corresponding CC50 values were determined using the same protocol as described in the antiviral assay except that uninfected cells were used. Cytotoxicity was assessed on day 4 in uninfected MT2 cells by using an XTT (2,3-bis[2-Methoxy-4-nitro-5-sulfophenyl]-2H-tetrazolium-5-carboxyanilide inner salt)-based colorimetric assay (Sigma-Aldrich, St Louis, Mo).

Compound	EC50 (recombinant NL4-3 virus)	CC50 at 4 day [1]
Cn1nc(NS(C)(=O)=O)c2c(Cl)ccc(-n3c([C@H](Cc4cc(F)cc(F)c4)NC(=O)Cn4nc(C(F)F)c5c4C(F)(F)[C@@H]4C[C@H]54)nc4nc(OCC5CC5(F)F)ccc4c3=O)c21 (stereo partly drawn) [Example 33, N-((1S)-1-((3P)-3-(4-chloro-1-methyl-3-(methylsulfonamido)-1H-indazol-7-yl)-7-((2,2-difluorocyclopropyl)methoxy)-4-oxo-3,4-dihydropyrido[2,3-d]pyrimidin-2-yl)-2-(3,5-difluorophenyl)ethyl)-2-((3bS,4aR)-3-(difluoromethyl)-5,5-difluoro-3b,4,4a,5-tetrahydro-1H-cyclopropa[3,4]cyclopenta[1,2-c]pyrazol-1-yl)acetamide]	0.037 nM	> 100 nM
Cn1nc(NS(C)(=O)=O)c2c(Cl)ccc(-n3c([C@H](Cc4cc(F)cc(F)c4)NC(=O)Cn4nc(C(F)F)c5c4C(F)(F)[C@@H]4C[C@H]54)nc4nc(OCCOCC(F)(F)F)ccc4c3=O)c21 (atropisomer, axis not shown; (P)) [Example 26, N-((S)-1-((3P)-3-(4-chloro-1-methyl-3-(methylsulfonamido)-1H-indazol-7-yl)-4-oxo-7-(2-(2,2,2-trifluoroethoxy)ethoxy)-3,4-dihydropyrido[2,3-d]pyrimidin-2-yl)-2-(3,5-difluorophenyl)ethyl)-2-((3bS,4aR)-3-(difluoromethyl)-5,5-difluoro-3b,4,4a,5-tetrahydro-1H-cyclopropa[3,4]cyclopenta[1,2-c]pyrazol-1-yl)acetamide]	0.024 nM	> 100 nM
COCCCCCOc1ccc2c(=O)n(-c3ccc(Cl)c4c(NS(C)(=O)=O)nn(C)c34)c([C@H](Cc3cc(F)cc(F)c3)NC(=O)Cn3nc(C(F)F)c4c3C(F)(F)[C@@H]3C[C@H]43)nc2n1 (atropisomer, axis not shown; (P)) [Example 17, N-((S)-1-((3P)-3-(4-chloro-1-methyl-3-(methylsulfonamido)-1H-indazol-7-yl)-7-((5-methoxypentyl)oxy)-4-oxo-3,4-dihydropyrido[2,3-d]pyrimidin-2-yl)-2-(3,5-difluorophenyl)ethyl)-2-((3bS,4aR)-3-(difluoromethyl)-5,5-difluoro-3b,4,4a,5-tetrahydro-1H-cyclopropa[3,4]cyclopenta[1,2-c]pyrazol-1-yl)acetamide]	0.046 nM	> 100 nM
Cn1nc(NS(C)(=O)=O)c2c(Cl)ccc(-n3c([C@H](Cc4cc(F)cc(F)c4)NC(=O)Cn4nc(C(F)F)c5c4C(F)(F)[C@@H]4C[C@H]54)nc4nc(OCCOCC(F)(F)C(F)(F)F)ccc4c3=O)c21 (atropisomer, axis not shown; (P)) [Example 20, N-((S)-1-((3P)-3-(4-chloro-1-methyl-3-(methylsulfonamido)-1H-indazol-7-yl)-4-oxo-7-(2-(2,2,3,3,3-pentafluoropropoxy)ethoxy)-3,4-dihydropyrido[2,3-d]pyrimidin-2-yl)-2-(3,5-difluorophenyl)ethyl)-2-((3bS,4aR)-3-(difluoromethyl)-5,5-difluoro-3b,4,4a,5-tetrahydro-1H-cyclopropa[3,4]cyclopenta[1,2-c]pyrazol-1-yl)acetamide]	0.045 nM	> 100 nM
Cn1nc(NS(C)(=O)=O)c2c(Cl)ccc(-n3c([C@H](Cc4cc(F)cc(F)c4)NC(=O)Cn4nc(C(F)F)c5c4C(F)(F)[C@@H]4C[C@H]54)nc4nc(OCC(F)(F)C(F)(F)F)ccc4c3=O)c21 (atropisomer, axis not shown; (P)) [Example 18, N-(1-((3P,3P)-3-(4-chloro-1-methyl-3-(methylsulfonamido)-1H-indazol-7-yl)-4-oxo-7-(2,2,3,3,3-pentafluoropropoxy)-3,4-dihydropyrido[2,3-d]pyrimidin-2-yl)-2-(3,5-difluorophenyl)ethyl)-2-((3bS,4aR)-3-(difluoromethyl)-5,5-difluoro-3b,4,4a,5-tetrahydro-1H-cyclopropa[3,4]cyclopenta[1,2-c]pyrazol-1-yl)acetamide]	0.031 nM	> 100 nM
Cn1nc(NS(C)(=O)=O)c2c(Cl)ccc(-n3c([C@H](Cc4cc(F)cc(F)c4)NC(=O)Cn4nc(C(F)F)c5c4C(F)(F)[C@@H]4C[C@H]54)nc4nc(OCC(F)(F)C(F)(F)C(F)(F)F)ccc4c3=O)c21 (atropisomer, axis not shown; (P)) [Example 39, N-((S)-1-((3P,3P)-3-(4-chloro-1-methyl-3-(methylsulfonamido)-1H-indazol-7-yl)-7-(2,2,3,3,4,4,4-heptafluorobutoxy)-4-oxo-3,4-dihydropyrido[2,3-d]pyrimidin-2-yl)-2-(3,5-difluorophenyl)ethyl)-2-((3bS,4aR)-3-(difluoromethyl)-5,5-difluoro-3b,4,4a,5-tetrahydro-1H-cyclopropa[3,4]cyclopenta[1,2-c]pyrazol-1-yl)acetamide]	0.122 nM	> 100 nM
Cc1ccnc(COc2ccc3c(=O)n(-c4ccc(Cl)c5c(NS(C)(=O)=O)nn(C)c45)c([C@H](Cc4cc(F)cc(F)c4)NC(=O)Cn4nc(C(F)F)c5c4C(F)(F)[C@@H]4C[C@H]54)nc3n2)n1 (atropisomer, axis not shown; (P)) [Example 7, N-((S)-1-((3P,3P)-3-(4-chloro-1-methyl-3-(methylsulfonamido)-1H-indazol-7-yl)-7-((4-methylpyrimidin-2-yl)methoxy)-4-oxo-3,4-dihydropyrido[2,3-d]pyrimidin-2-yl)-2-(3,5-difluorophenyl)ethyl)-2-((3bS,4aR)-3-(difluoromethyl)-5,5-difluoro-3b,4,4a,5-tetrahydro-1H-cyclopropa[3,4]cyclopenta[1,2-c]pyrazol-1-yl)acetamide]	0.059 nM	> 500 nM
COC1(CCOc2ccc3c(=O)n(-c4ccc(Cl)c5c(NS(C)(=O)=O)nn(C)c45)c([C@H](Cc4cc(F)cc(F)c4)NC(=O)Cn4nc(C(F)F)c5c4C(F)(F)[C@@H]4C[C@H]54)nc3n2)CCC1 (atropisomer, axis not shown; (P)) [Example 16, N-((S)-1-((3P,3P)-3-(4-chloro-1-methyl-3-(methylsulfonamido)-1H-indazol-7-yl)-7-(2-(1-methoxycyclobutyl)ethoxy)-4-oxo-3,4-dihydropyrido[2,3-d]pyrimidin-2-yl)-2-(3,5-difluorophenyl)ethyl)-2-((3bS,4aR)-3-(difluoromethyl)-5,5-difluoro-3b,4,4a,5-tetrahydro-1H-cyclopropa[3,4]cyclopenta[1,2-c]pyrazol-1-yl)acetamide]	0.03 nM	> 100 nM
Cn1nc(NS(C)(=O)=O)c2c(Cl)ccc(-n3c([C@H](Cc4cc(F)cc(F)c4)NC(=O)Cn4nc(C(F)F)c5c4C(F)(F)[C@@H]4C[C@H]54)nc4nc(OCCOC(F)F)ccc4c3=O)c21 (atropisomer, axis not shown; (P)) [Example 29, N-((S)-1-((3P)-3-(4-chloro-1-methyl-3-(methylsulfonamido)-1H-indazol-7-yl)-7-(2-(difluoromethoxy)ethoxy)-4-oxo-3,4-dihydropyrido[2,3-d]pyrimidin-2-yl)-2-(3,5-difluorophenyl)ethyl)-2-((3bS,4aR)-3-(difluoromethyl)-5,5-difluoro-3b,4,4a,5-tetrahydro-1H-cyclopropa[3,4]cyclopenta[1,2-c]pyrazol-1-yl)acetamide]	0.033 nM	> 100 nM
Cn1nc(NS(C)(=O)=O)c2c(Cl)ccc(-n3c([C@H](Cc4cc(F)cc(F)c4)NC(=O)Cn4nc(C(F)F)c5c4C(F)(F)[C@@H]4C[C@H]54)nc4nc(OCc5nc(C(F)(F)F)cs5)ccc4c3=O)c21 (atropisomer, axis not shown; (P)) [Example 23, N-((S)-1-((3P)-3-(4-chloro-1-methyl-3-(methylsulfonamido)-1H-indazol-7-yl)-4-oxo-7-((4-(trifluoromethyl)thiazol-2-yl)methoxy)-3,4-dihydropyrido[2,3-d]pyrimidin-2-yl)-2-(3,5-difluorophenyl)ethyl)-2-((3bS,4aR)-3-(difluoromethyl)-5,5-difluoro-3b,4,4a,5-tetrahydro-1H-cyclopropa[3,4]cyclopenta[1,2-c]pyrazol-1-yl)acetamide]	0.1 nM	> 100 nM
Cc1cnc(COc2ccc3c(=O)n(-c4ccc(Cl)c5c(NS(C)(=O)=O)nn(C)c45)c([C@H](Cc4cc(F)cc(F)c4)NC(=O)Cn4nc(C(F)F)c5c4C(F)(F)[C@@H]4C[C@H]54)nc3n2)nc1 (atropisomer, axis not shown; (P)) [Example 8, N-((S)-1-((3P,3P)-3-(4-chloro-1-methyl-3-(methylsulfonamido)-1H-indazol-7-yl)-7-((5-methylpyrimidin-2-yl)methoxy)-4-oxo-3,4-dihydropyrido[2,3-d]pyrimidin-2-yl)-2-(3,5-difluorophenyl)ethyl)-2-((3bS,4aR)-3-(difluoromethyl)-5,5-difluoro-3b,4,4a,5-tetrahydro-1H-cyclopropa[3,4]cyclopenta[1,2-c]pyrazol-1-yl)acetamide]	0.049 nM	> 100 nM
